For 88 compounds, EC50 results are on record in ChEMBL document CHEMBL5725356, “Anti-fibrotic pyridinones” (2017).

pEC50: −log10 of the molar value.

The term pEC50 denotes the negative decadic logarithm of the EC50, by convention in mol/L. By EC50 is commonly meant the concentration that produces a half-maximal response.

A short description of this experiment: ET-1 Assay: Fibroblasts (primary human lung and dermal, HFL-1, 3T3 etc) are seeded in 96-well plates at ~15000 cells/well and serum starved for 0-48 hours. After media exchange, compounds serially diluted in DMSO are added to the cells. After a brief incubation of ~30 min, stimulants (TGFb, serum, LPA etc) are added followed by further incubation for 16-48 hours. Media is then harvested and stored frozen in plate format for later endothelin-1 (ET-1) determination by ELISA. Toxicity measurements are made using the ATPlite kit (Perkin-Elmer). ET-1 is quantified using an ELISA kit (R&D Systems). The amount of ET-1 produced in the assay wells are back-calculated using the ELISA standard. The ability of a compound to inhibit ET-1 production is typically analyzed by fitting dose-response curves to a 4-parameter logistic function to obtain an EC50 value. The note with it: HFL1.
As for `CCn1ccc2c(=O)n(-c3ccc(OC(F)(F)F)cc3)cc(-c3cnn(C)c3)c21`, the pEC50 is above 4.30.
On the same count and under the same terms, the result for `CCn1ccc2ccn(-c3ccc(OC(F)(F)F)cc3)c(=O)c21` reads above 4.30; that for `CNc1cc(=O)n(-c2ccc(OC(F)(F)F)cc2)cc1-c1ccc(F)cc1`, below 3.70; that for `Cc1cc(=O)n(-c2cccc3c2OCO3)cc1-c1cnn(C)c1`, below 3.70.
As to `Cn1cc(-c2cn(-c3ccc(OC(F)(F)F)cc3)c(=O)cc2OC2CCS(=O)(=O)CC2)cn1`, the half-maximal effective concentration (EC50) entry was “in the range around 125 µM”.
Take `N#Cc1ccc(-n2cc(-c3cn[nH]c3)c3ncccc3c2=O)cc1`: the pEC50 is below 3.70.
The same measure, in the same setting: the result for `NS(=O)(=O)c1ccc(-c2ccc(=O)n(-c3ccc(Cl)cc3)c2)cc1` reads below 3.70; that for `CCn1nc2c(-c3cn[nH]c3)cn(-c3ccc(OC(F)(F)F)cc3)c(=O)c2n1`, above 4.30.
Turning to `O=c1ccc(-c2ccc(F)cc2)cn1-c1cccc(C(F)(F)F)c1`, the concentration for a half-maximal effect (EC50) entry is “in the range around 125 µM”.
Take `O=c1ccc(Br)cn1-c1cccc(C(F)(F)F)c1`: the pEC50 is below 3.70.
Consider `CCOc1ccc(-n2cc(C(F)(F)F)ccc2=O)c(C)c1`, for which the half-maximal effective concentration (EC50) entry was “in the range around 125 µM”.
For the compound `Cn1cc(-c2cn(-c3ccc(OC(F)(F)F)cc3)c(=O)cc2Oc2ccc(Cl)cc2)cn1`, the negative-log EC50 (pEC50) is below 3.70.
Same read-out and setting: the result for `O=c1c2nccnc2c(-c2ccc(F)cc2)cn1-c1ccc(OC(F)(F)F)cc1` reads above 4.30; that for `CC(=O)Nc1cccc(-n2cc(C(F)(F)F)ccc2=O)c1`, below 3.70.
Regarding `Cc1cc(=O)n(-c2ccc(F)cc2)cc1-c1ccc(OC(F)(F)F)cc1`, the concentration giving a half-maximal response (EC50) result was “in the range around 125 µM”.
Take `Cc1nc2c(-c3cnn(Cc4ccccc4)c3)cn(-c3ccc(OC(F)(F)F)cc3)c(=O)c2s1`: the pEC50 is above 4.30.
Still for that read-out and setting: the result for `CCOc1ccc(-n2cc(-c3cnn(C)c3)c3nccnc3c2=O)c(C)c1` reads above 4.30; that for `O=c1ccc(Br)cn1-c1ccc(F)cc1`, below 3.70; that for `Cc1cc(=O)n(-c2ccc(OC(F)(F)F)cc2)cc1-c1nnnn1C`, below 3.70.
As to `CC(=O)N1CCc2c(-c3cnn(C)c3)cn(-c3ccc(OC(F)(F)F)cc3)c(=O)c21`, the 50% effective concentration (EC50) entry is “in the range around 125 µM”.
With `Cn1cc(-c2cn(-c3ccc(OC(F)(F)F)cc3)c(=O)cc2NCc2ncccn2)cn1`, the pEC50 was below 3.70.
Consider `COC(=O)Nc1cc(=O)n(-c2ccc(OC(F)(F)F)cc2)cc1-c1ccc(F)cc1`, for which the pEC50 was below 3.70.
On the same count and under the same terms, the result for `Cn1cc(-c2cn(-c3ccc(OC(F)(F)F)cc3)c(=O)c3c2ncn3C)cn1` reads above 4.30.
Take `Cn1cc(-c2cn(-c3ccc(OC(F)(F)F)cc3)c(=O)cc2NCc2cccnc2)cn1`: the EC50 entry was “in the range around 125 µM”.
For the compound `O=c1cc(NCc2ncccn2)ccn1-c1ccc(OC(F)(F)F)cc1`, the negative-log EC50 (pEC50) is below 3.70.
For `CC(C)NC(=O)n1cc(-c2ccc(=O)n(-c3ccccc3)c2)cn1`, the concentration giving a half-maximal response (EC50) entry was “in the range around 125 µM”.
For the compound `Cc1cn(C)c2c(=O)n(-c3ccc(OC(F)(F)F)cc3)cc(-c3ccc(F)cc3)c12`, the pEC50 is above 4.30.
Still for that read-out and setting: the result for `Cc1n[nH]c(C)c1-c1ccc(=O)n(-c2cccc(F)c2)c1` reads below 3.70; that for `Cn1cc(-c2cn(-c3ccc(Cl)cc3)c(=O)c3c2ccn3C)cn1`, above 4.30.
On the same count and under the same terms, the result for `Cn1cc(-c2cn(-c3ccc(OC(F)(F)F)cc3)c(=O)cc2Oc2ccccc2)cn1` reads above 4.30.
As to `Cc1cc(=O)n(-c2ccc(OC(F)(F)F)cc2)cc1-c1cccc2c1OCC(=O)N2`, the pEC50 was below 3.70.
Still for that read-out and setting: the result for `CC(=O)c1ccc(=O)n(-c2ccc(F)cc2)c1` reads below 3.70.
On to `O=C1COCCN1CCOc1cc(=O)n(-c2ccc(OC(F)(F)F)cc2)cc1-c1ccc(F)cc1`, for which the concentration for a half-maximal effect (EC50) result was “in the range around 125 µM”.
On to `Cn1cc(-c2ccc(=O)n(-c3ccccc3)n2)cn1`, for which the pEC50 is below 3.70.
As for `Cn1cc(-c2ccc(=O)n(-c3ccc(OC(F)(F)F)cc3)n2)cn1`, the pEC50 is below 3.70.
Same read-out and setting: the result for `CCOc1ccc(-n2cc(-c3cnn(C)c3)c(NCc3cc(F)cc(F)c3)cc2=O)c(C)c1` reads above 4.30.
Regarding `Cc1cc(=O)n(-c2ccc(OC(F)(F)F)cc2)cc1-c1cccc2c1OC(C)(C)O2`, the concentration giving a half-maximal response (EC50) result is “in the range around 125 µM”.
For `Cn1cc(-c2cn(-c3ccc(OC(F)(F)F)cc3)c(=O)cc2NCc2ccc(C#N)cc2F)cn1`, the pEC50 was above 4.30.
On to `COc1ccc(-c2ccc(=O)n(-c3ccccc3Cl)c2)cc1`, for which the concentration for a half-maximal effect (EC50) entry is “in the range around 125 µM”.
Consider `N#Cc1ccc(-n2cc(-c3cn[nH]c3)c3nccnc3c2=O)cc1`, for which the negative-log EC50 (pEC50) was below 3.70.
Same read-out and setting: the result for `CCn1ccc2c(-c3ccc(F)cc3)cn(-c3ccc(OC(F)(F)F)cc3)c(=O)c21` reads above 4.30; that for `Cc1ccc(=O)n(-c2ccccc2)n1`, below 3.70.
Turning to `CC(C)Oc1ccc(-n2cc(-c3ccc(S(N)(=O)=O)cc3)ccc2=O)cc1`, the negative logarithm of the EC50 (pEC50) is below 3.70.
The same measure, in the same setting: the result for `CC(C)OC(=O)Nc1cc(=O)n(-c2ccc(OC(F)(F)F)cc2)cc1-c1ccc(F)cc1` reads below 3.70.
Same read-out and setting: the result for `Cn1cc(-c2cn(-c3ccc(OC(F)(F)F)cc3)c(=O)cc2NCc2ccccc2)cn1` reads above 4.30.
On the same count and under the same terms, the result for `Cc1cc(=O)n(-c2ccc(Cl)cc2)cc1-c1ccc2ocnc2c1` reads below 3.70; that for `Cn1cc(-c2cn(-c3ccc(Cl)cc3)c(=O)c3nccnc23)cn1`, below 3.70.
On to `O=c1c2cccnc2c(-c2ccc(F)cc2)cn1-c1ccc(OC(F)(F)F)cc1`, for which the pEC50 is below 3.70.
On the same count and under the same terms, the result for `CC(C)n1cc(-c2cn(-c3ccc(OC(F)(F)F)cc3)c(=O)c3c2ncn3C)cn1` reads above 4.30.
On the same count and under the same terms, the result for `COc1cccc(-n2cc(C(F)(F)F)ccc2=O)c1` reads below 3.70; that for `CC(C)n1ccc2c(-c3cnn(C)c3)cn(-c3ccc(OC(F)(F)F)cc3)c(=O)c21`, above 4.30.
Turning to `COc1cc(-n2cc(-c3ccc(F)cc3)c(C)cc2=O)cc(OC)c1OC`, the EC50 entry was “in the range around 125 µM”.
As for `Cc1cc(=O)n(-c2ccc(OC(F)(F)F)cc2C)cc1-c1cnn(C)c1`, the negative-log EC50 (pEC50) is below 3.70.
For `COc1ccc(-c2ccc(=O)n(-c3cccc(OC)c3)c2)cc1`, the half-maximal effective concentration (EC50) result was “in the range around 125 µM”.
With `CCOc1ccc(-n2cc(-c3cn[nH]c3)c3ncccc3c2=O)c(C)c1`, the pEC50 is above 4.30.
Still for that read-out and setting: the result for `Cn1cc(-c2cn(-c3ccc(OC(F)(F)F)cc3)c(=O)cc2OCCN2CCS(=O)(=O)CC2)cn1` reads below 3.70.
The same measure, in the same setting: the result for `COc1cc(=O)n(-c2ccc(OC(F)(F)F)cc2)cc1-c1cnn(C)c1` reads above 4.30; that for `Cn1cc(-c2cn(-c3ccc(OC(F)(F)F)cc3)c(=O)c3[nH]ccc23)cn1`, above 4.30; that for `COCCOCCOCCOc1ccc(-n2cc(C)ccc2=O)cc1`, below 3.70.
Still for that read-out and setting: the result for `O=c1ccc(-c2cn[nH]c2)cn1-c1ccc(OC(F)(F)F)cc1` reads above 4.30.
As for `CC(C)c1cc(=O)n(-c2ccc(OC(F)(F)F)cc2)cc1-c1ccc(F)cc1`, the EC50 result is “in the range around 125 µM”.
On to `Cn1cc(-c2cn(-c3ccc(OC(F)(F)F)cc3)c(=O)cc2NCc2ccc(C#N)cc2)cn1`, for which the pEC50 is below 3.70.
For `Cc1cc(=O)n(-c2ccc(Cl)cc2C)cc1-c1cnn(C)c1`, the EC50 entry is “in the range around 125 µM”.
As to `CCn1cnc2c(-c3cnn(C(C)C)c3)cn(-c3ccc(OC(F)(F)F)cc3)c(=O)c21`, the negative-log EC50 (pEC50) is above 4.30.
Still for that read-out and setting: the result for `CCn1nnc2c(-c3cn[nH]c3)cn(-c3ccc(OC(F)(F)F)cc3)c(=O)c21` reads above 4.30.
Consider `O=c1ncc(-c2ccc(F)cc2)cn1-c1ccccc1`, for which the EC50 entry was “in the range around 125 µM”.
In the case of `Cc1cc(=O)n(-c2ccc(OC(F)(F)F)cc2)cc1-c1ccncc1`, the pEC50 was below 3.70.
On the same count and under the same terms, the result for `Cc1cc(C)c(=O)n(-c2ccccc2)c1` reads below 3.70.
`Cc1nc2c(=O)n(-c3ccc(OC(F)(F)F)cc3)cc(-c3cnn(C)c3)c2n1C`: the half-maximal effective concentration (EC50) result was “in the range around 125 µM”.
As for `Cc1cc(=O)n(-c2ccc(OC(F)(F)F)cc2)cc1-c1ccc2ocnc2c1`, the pEC50 was above 4.30.
The same measure, in the same setting: the result for `CCOc1ccc(-c2c(-c3ccc(F)cc3)c(=O)c2=O)c(C)c1` reads above 4.30.
Consider `Cc1cc(=O)n(-c2ccc(Cl)cc2C)cc1-c1ccccc1`, for which the half-maximal effective concentration (EC50) result is “in the range around 125 µM”.
Consider `Cc1cc(=O)n(-c2ccc(OC(F)(F)F)cc2)cc1-c1ccccc1`, for which the negative logarithm of the EC50 (pEC50) was above 4.30.
Consider `O=c1c2c(c(-c3cn[nH]c3)cn1-c1ccc(OC(F)(F)F)cc1)CCCC2`, for which the 50% effective concentration (EC50) entry is “in the range around 125 µM”.
Turning to `CCOc1ccc(Oc2cc(=O)n(-c3ccc(OC(F)(F)F)cc3)cc2-c2cnn(C)c2)cc1C#N`, the pEC50 was above 4.30.
The same measure, in the same setting: the result for `Cc1cc(=O)n(-c2cccc(NC(N)=O)c2)cc1-c1ccc(F)cc1` reads above 4.30; that for `CC(C)OCCn1ccc2c(-c3cn[nH]c3)cn(-c3ccc(OC(F)(F)F)cc3)c(=O)c21`, above 4.30.
On the same count and under the same terms, the result for `O=c1ccc(Br)cn1-c1ccc(Cl)cc1` reads below 3.70.
Consider `CCOc1ccc(-n2cc(-c3ccccc3)ccc2=O)c(C)c1`, for which the EC50 entry was “in the range around 125 µM”.
As for `Cc1nc2c(=O)n(-c3ccc(OC(F)(F)F)cc3)cc(-c3cnn(C)c3)c2o1`, the negative logarithm of the EC50 (pEC50) is above 4.30.
Turning to `Cc1cc(=O)n(-c2ccc(OC(F)(F)F)cc2)cc1-c1ccc(Cl)c(F)c1`, the EC50 entry was “in the range around 125 µM”.
Same read-out and setting: the result for `O=c1ccc(-c2ccc(F)cc2)cn1-c1ccccc1F` reads “in the range around 125 µM”.
In the case of `Cn1cc(-c2cn(-c3ccc(OC(F)(F)F)cc3)c(=O)c3[nH]nnc23)cn1`, the pEC50 was above 4.30.
For the compound `Cc1cc(=O)n(-c2ccc(OC(F)(F)F)cc2)cc1-c1ccc2c(c1)OCC(=O)N2CCO`, the pEC50 is below 3.70.
On to `Cc1cc(=O)n(-c2ccccc2F)cc1-c1ccccc1`, for which the 50% effective concentration (EC50) result was “in the range around 125 µM”.
On to `Cn1ccc2c(-c3cn[nH]c3)cn(-c3ccc(Cl)cc3)c(=O)c21`, for which the negative-log EC50 (pEC50) is above 4.30.
For `O=c1ccc2c(n1-c1ccccc1)CCC2`, the pEC50 is below 3.70.
For `O=c1ccc(-c2ccccc2)cn1-c1ccncc1`, the pEC50 was below 3.70.
